Consider 17 compounds from patent publication US20260209247A1, “Substituted Tricyclic Compounds” (Lupin Limited, priority 2019, published 2026).

Assay [1] deals with T1, protein-protein interaction between hSOS1 and hKRASG12C (Homo sapiens, UniProt Q07889).
T1 construct: GST-hSOS1, 564-1049aa expressed and purified in-house
T1 sequence (Q07889 564-1049): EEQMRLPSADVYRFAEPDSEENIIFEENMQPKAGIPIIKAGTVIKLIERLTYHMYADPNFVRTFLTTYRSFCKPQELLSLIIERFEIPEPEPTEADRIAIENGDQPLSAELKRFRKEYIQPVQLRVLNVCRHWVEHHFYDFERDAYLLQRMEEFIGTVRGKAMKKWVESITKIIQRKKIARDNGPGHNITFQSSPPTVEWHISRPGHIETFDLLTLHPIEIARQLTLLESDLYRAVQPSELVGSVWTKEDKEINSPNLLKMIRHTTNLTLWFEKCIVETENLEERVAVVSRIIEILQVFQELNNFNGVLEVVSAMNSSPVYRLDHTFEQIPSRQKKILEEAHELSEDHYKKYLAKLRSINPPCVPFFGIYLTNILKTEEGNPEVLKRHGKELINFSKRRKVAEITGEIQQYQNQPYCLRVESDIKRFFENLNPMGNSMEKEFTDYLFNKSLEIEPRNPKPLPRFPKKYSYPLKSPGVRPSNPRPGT
Briefly: KRAS-SOS1 interaction assay (HTRF). In kind it is binding. Conditions: GST-hSOS1 564-1049aa, HIS-hKRASG12C, read-out: KRAS-SOS1 Interaction inhibition IC50. The gist of the method:
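GST-hSOS1 (564-1049aa) at 10-50 nM working solution pre-incubated with compounds 10 min at 20° C in HEPES pH 7.4 buffer with EDTA, DTT, BSA and Igepal. HIS-hKRASG12C (100-300 nM working solution) added for 30-60 min, then anti-GST-d2/anti-HIS-Tb detection; percent inhibition from the 665/620 nm ratio.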

Assay [2] concerns the target T2, nucleotide exchange on hKRASG12C mediated by hSOS1 (Homo sapiens, UniProt Q07889).
T2 construct: HIS-hSOS1, 564-1049aa mediated GTP loading onto GST-hKRASG12C; His (N); made in house
T2 sequence (Q07889 564-1049): T1 sequence (Q07889 564-1049)
Briefly: Guanine nucleotide exchange assay (GNEA, HTRF). In kind it is biochemical. Conditions: HIS-hSOS1 564-1049aa mediated GTP loading onto GST-hKRASG12C 1-169aa, read-out: Guanine nucleotide exchange inhibition IC50. In a few lines:
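Compounds were pre-incubated 10 min at 20 °C with HIS-hSOS1 (564-1049aa) and EDA-GTP-DY-647P1 (working solution 10-50 nM and 200 nM) in pH 7.4 HEPES with NaCl, MgCl2, DTT, BSA and Igepal. GST-hKRASG12C (1-169aa, 25-125 nM working solution) plus anti-GST-Tb was added for 30-60 min at 20 °C. Percent inhibition came from the HTRF 665/620 nm ratio.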
(In general: Time-resolved FRET reads energy transfer from a long-lived donor to a nearby acceptor.)

Assay [3] has as its system pERK after EGF stimulation in DLD1 cells. Briefly: ERK phosphorylation assay (alphascreen pERK). It counts as cell-based. Particulars: Homo sapiens, DLD-1, 2 h compound, 200 ng/ml hEGF for 5 minutes, read-out: ERK phosphorylation inhibition IC50. The gist of the method: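 DLD1 cells pretreated with test compounds for 2 h, then stimulated with 200 ng/ml hEGF for 5 min. Lysates assayed by AlphaScreen SureFire for ERK1/2 p-T202/Y204, read after 2 h at 25–28 °C. % inhibition relative to the stimulated-minus-unstimulated vehicle window.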
On the technique in general: In Alpha technology, singlet oxygen from a donor bead excites a nearby acceptor bead.

Turning to `CCN1C(=O)COc2cc3nc(C)nc(N[C@H](C)c4cccc(C(F)(F)CO)c4F)c3cc21` [Compound 13, (R)-4-((1-(3-(1,1-difluoro-2-hydroxyethyl)-2-fluorophenyl)ethyl)amino)-6-ethyl-2-methyl-6H-[1,4]oxazino[3,2-g]quinazolin-7(8H)-one], the 50% inhibitory concentration (IC50) (as a rule, the concentration needed to halve the response being measured) is 1 to 10 nM in assay [1], 1 to 30 nM in assay [2] and 1 to 200 nM in assay [3].

For `Cc1nc(N[C@H](C)c2cccc(C(F)(F)CO)c2F)c2cc3c(cc2n1)OC(C)(C)C(=O)N3C` [Compound 18, (R)-4-((1-(3-(1,1-difluoro-2-hydroxyethyl)-2-fluorophenyl)ethyl)amino)-2,6,8,8-tetramethyl-6H-[1,4]oxazino[3,2-g]quinazolin-7(8H)-one], the half-inhibitory concentration (IC50) in assay [1] lay in the range of 1 to 10 nM; in assay [2], 1 to 30 nM; in assay [3], 1 to 200 nM.

Take `Cc1nc(N[C@H](C)c2cccc(C(F)(F)CO)c2F)c2cc3c(cc2n1)OC1(CC1)C(=O)N3C` [Compound 25, (R)-4′-((1-(3-(1,1-difluoro-2-hydroxyethyl)-2-fluorophenyl)ethyl)amino)-2′,6′-dimethylspiro[cyclopropane-1,8′-[1,4]oxazino[3,2-g]quinazolin]-7′(6′H)-one]: the values for the IC50 in assay [1], in assay [2] and in assay [3] were 1 to 10 nM, 1 to 30 nM and 1 to 200 nM, respectively.

`Cc1nc(N[C@H](C)c2cccc(C(F)(F)C(C)(C)O)c2F)c2cc3c(cc2n1)N(C)C(C)(C)C(=O)N3C` [Compound 28, (R)-4-((1-(3-(1,1-difluoro-2-hydroxy-2-methylpropyl)-2-fluorophenyl)ethyl)amino)-2,6,8,8,9-pentamethyl-8,9-dihydropyrazino[2,3-g]quinazolin-7(6H)-one]: the IC50 in assay [1] is 1 to 10 nM; in assay [2], 1 to 30 nM; in assay [3], 1 to 200 nM.

For the compound `Cc1nc(N[C@H](C)c2cccc(C(F)(F)C(C)(C)O)c2F)c2cc3c(cc2n1)c(=O)n(C)c(=O)n3C` [Compound 29, (R)-9-((1-(3-(1,1-difluoro-2-hydroxy-2-methylpropyl)-2-fluorophenyl)ethyl)amino)-1,3,7-trimethylpyrimido[4,5-g]quinazoline-2,4(1H,3H)-dione], the figures for the IC50 in assay [1], in assay [2] and in assay [3] were 1 to 10 nM, 1 to 30 nM and 1 to 200 nM, respectively.

For `Cc1nc(N[C@H](C)c2cccc(C(F)(F)C(C)(C)O)c2F)c2cc3c(cc2n1)OC(C)(C)CN3C` [Compound 34, (R)-1,1-Difluoro-1-(2-fluoro-3-(1-((2,6,8,8-tetramethyl-7,8-dihydro-6H-[1,4]oxazino [3,2-g]quinazolin-4-yl)amino)ethyl)phenyl)-2-methylpropan-2-ol], the IC50 in assay [1] lay within 1 to 10 nM; in assay [2], 31 to 130 nM; in assay [3], 1 to 200 nM.

In the case of `Cc1nc(N[C@H](C)c2cccc(C(F)(F)CO)c2F)c2cc3c(cc2n1)OC(C)(C)CN3C` [Compound 35, (R)-2,2-Difluoro-2-(2-fluoro-3-(1-((2,6,8,8-tetramethyl-7,8-dihydro-6H-[1,4]oxazino[3,2-g]quinazolin-4-yl)amino)ethyl)phenyl)ethan-1-ol], the IC50 lay in the range of 1 to 10 nM in assay [1], 1 to 30 nM in assay [2] and 1 to 200 nM in assay [3].

As to `Cc1nc(N[C@H](C)c2cccc(C(F)(F)C(C)(C)O)c2F)c2cc3c(cc2n1)OCC(C)(C)N3C` [Compound 37, (R)-1,1-Difluoro-1-(2-fluoro-3-(1-((2,6,7,7-tetramethyl-7,8-dihydro-6H-[1,4]oxazino[3,2-g]quinazolin-4-yl)amino)ethyl)phenyl)-2-methylpropan-2-ol], the IC50 in assay [1] lay in the range of 1 to 10 nM; in assay [2] it was 1 to 30 nM; in assay [3], 1 to 200 nM.

As to `Cc1nc(N[C@H](C)c2cccc(C(F)(F)C(C)(C)O)c2F)c2cc3c(cc(C)c(=O)n3C)cc2n1` [Compound 38, (R)-4-((1-(3-(1,1-Difluoro-2-hydroxy-2-methylpropyl)-2-fluorophenyl)ethyl)amino)-2,6,8-trimethylpyrido[2,3-g]quinazolin-7(6H)-one], the IC50 in assay [1] fell in the range of 1 to 10 nM; in assay [2] it was 1 to 30 nM; in assay [3], 1 to 200 nM.

As for `Cc1nc(N[C@H](C)c2cccc(C(F)(F)C(C)(C)O)c2F)c2cc3c(cc2n1)nc(C)c(=O)n3C` [Compound 39, (R)-4-((1-(3-(1,1-Difluoro-2-hydroxy-2-methylpropyl)-2-fluorophenyl)ethyl)amino)-2,6,8-trimethylpyrazino[2,3-g]quinazolin-7(6H)-one], the IC50 in assay [1] lay in the range of 1 to 10 nM; in assay [2] it was 1 to 30 nM; in assay [3], 1 to 200 nM.

For the compound `Cc1nc(N[C@H](C)c2cccc(C(F)(F)C(C)(C)O)c2F)c2cc3c(cc2n1)C(C)(C)CC(=O)N3C` [Compound 42, (R)-4-((1-(3-(1,1-difluoro-2-hydroxy-2-methylpropyl)-2-fluorophenyl)ethyl)amino)-2,6,9,9-tetramethyl-8,9-dihydropyrido[2,3-g]quinazolin-7(6H)-one], the IC50 in assay [1] was 1 to 10 nM; in assay [2], 1 to 30 nM; in assay [3], 1 to 200 nM.

On to `Cc1nc(N[C@H](C)c2cccc(C(F)(F)C(C)(C)O)c2F)c2cc3c(cc2n1)OCCN3C` [Compound 45, (R)-1-(3-(1-((2,6-dimethyl-7,8-dihydro-6H-[1,4]oxazino[3,2-g]quinazolin-4-yl)amino)ethyl)-2-fluorophenyl)-1,1-difluoro-2-methylpropan-2-ol], for which the IC50 is 1 to 10 nM in assay [1], 31 to 130 nM in assay [2] and 1 to 200 nM in assay [3].

With `Cc1nc(N[C@H](C)c2cccc(C(F)(F)C(C)(C)O)c2F)c2cc3c(c(F)c2n1)OCC(=O)N3C` [Compound 47, (R)-4-((1-(3-(1,1-difluoro-2-hydroxy-2-methylpropyl)-2-fluorophenyl)ethyl)amino)-10-fluoro-2,6-dimethyl-6H-[1,4]oxazino[3,2-g]quinazolin-7(8H)-one], the figures for the IC50 in assay [1], in assay [2] and in assay [3] were 11 to 25 nM, 31 to 130 nM and 1 to 200 nM, respectively.

Turning to `Cc1nc(N[C@H](C)c2cccc(C(F)(F)C(C)(O)CF)c2F)c2cc3c(cc2n1)OC(C)(C)C(=O)N3C` (stereo partly drawn) [Compound 54, (R&S)-4-(((1R)-1-(2-fluoro-3-(1,1,3-trifluoro-2-hydroxy-2-methylpropyl)phenyl)ethyl)amino)-2,6,8,8-tetramethyl-6H-[1,4]oxazino[3,2-g]quinazolin-7(8H)-one], the figures for the IC50 in assay [1], in assay [2] and in assay [3] were 1 to 10 nM, 1 to 30 nM and 1 to 200 nM, respectively.

With `CNCC(C)(O)C(F)(F)c1cccc([C@@H](C)Nc2nc(C)nc3cc4c(cc23)N(C)C(=O)C(C)(C)O4)c1F` (stereo partly drawn) [Compound 55, (R&S)-4-(((1R)-1-(3-(1,1-difluoro-2-hydroxy-2-methyl-3-(methylamino)propyl)-2-fluorophenyl)ethyl)amino)-2,6,8,8-tetramethyl-6H-[1,4]oxazino[3,2-g]quinazolin-7(8H)-one], the figures for the IC50 in assay [1], in assay [2] and in assay [3] were 1 to 10 nM, 1 to 30 nM and 1 to 200 nM, respectively.

On to `Cc1nc(N[C@H](C)c2cccc(C(F)(F)C(C)(C)O)c2F)c2cc3c(cc2n1)N(C)C(=O)C31CCCC1` [Compound 58, (R)-4′-((1-(3-(1,1-difluoro-2-hydroxy-2-methylpropyl)-2-fluorophenyl)ethyl)amino)-2′,8′-dimethylspiro[cyclopentane-1,6′-pyrrolo[3,2-g]quinazolin]-7′(8′H)-one], for which the IC50 in assay [1] fell in the range of 1 to 10 nM; in assay [2], 1 to 30 nM; in assay [3] it was 1 to 200 nM.

In the case of `Cc1nc(N[C@H](C)c2cccc(C(F)(F)CO)c2F)c2cc3c(cc2n1)N(C)C(=O)C31CCCC1` [Compound 62, (R)-4′-((1-(3-(1,1-difluoro-2-hydroxyethyl)-2-fluorophenyl)ethyl)amino)-2′,8′-dimethylspiro[cyclopentane-1,6′-pyrrolo[3,2-g]quinazolin]-7′(8′H)-one], the IC50 was in the range of 1 to 10 nM in assay [1], 1 to 30 nM in assay [2] and 1 to 200 nM in assay [3].
